Patent publication US20030096237A1, “Determination of the ability of patients to respond to a tumor treatment” (priority 2000, published 2003)

Key:
Experiment in all cases: HLA class I induction, flow-cytometry
Assay type in all cases: cell-based, human
CNCM I-2544 = conditions: two days with IFN-α 100 U/ml, absence 305
Description: (§1) Melanoma cell lines were screened for their sensitivity to proliferation inhibition and HLA class I induction. The study was done of six cell lines (CNCM I-2544, CNCM I-2545, CNCM I-2546, CNCM I-2547, CNCM I-2548 and CNCM I-2549).
(§2) All these cell lines were cultured in RPMI medium supplemented with 10% FCS, glutamine (2 mM), sodium pyruvate (1 mM), non-essential amino acids and HEPES buffer (10 mM) (all from GIBCO Life Sciences, Paisley, UK). When confluent, the cells were passaged by trypsinization.
(§3) A number of established melanoma cell lines were assayed for their sensitivity to IFN-α by testing the capacity of IFN-α to inhibit their proliferation and to increase their surface expression of HLA class I determinants.

CNCM I-2549 = conditions: two days with IFN-α 100 U/ml, absence 203
Description: as §1, §2, §3

CNCM I-2548 = conditions: two days with IFN-α 100 U/ml, absence 380
Description: as §1, §2, §3

CNCM I-2545 = conditions: two days with IFN-α 100 U/ml, absence 196
Description: as §1, §2, §3

CNCM I-2546 = conditions: two days with IFN-α 100 U/ml, absence 257
Description: as §1, §2, §3

CNCM I-2547 = conditions: two days with IFN-α 100 U/ml, absence 135
Description: as §1, §2, §3

IFN-α
HLA class I induction, mean fluorescence intensity (CNCM I-2544): (442 vs. 305) | HLA class I induction, mean fluorescence intensity (CNCM I-2549): (175 vs. 203) | HLA class I induction, mean fluorescence intensity (CNCM I-2548): (559 vs. 380) | HLA class I induction, mean fluorescence intensity (CNCM I-2545): (184 vs. 196) | HLA class I induction, mean fluorescence intensity (CNCM I-2546): (521 vs. 257) | HLA class I induction, mean fluorescence intensity (CNCM I-2547): (980 vs. 135)
